Test results as given in patent US20240285555A1, “COMPOSITIONS FOR THE TREATMENT OF COPPER DEFICIENCY AND METHODS OF USE” (priority 2018, published 2024).

Legend:
[1] = tested on: Ctr1^−/− H9c2 cardiomyocytes; assay: COX1 and SOD1 levels in Ctr1 knockout H9c2 cardiomyocytes (Western blot); format: cell-based, rat; details: 5 nM ES
Description: FIGS. 4A and 4B illustrates the effects of ES supplementation in increasing copper levels (A) and cytochrome c oxidase subunit, COX1, and superoxide dismutase, SOD1 levels (B) in Ctrl1^−/− H9c2 rat cardiomyocytes. ATP5A is a subunit of mitochondrial ATP synthase and was used as a loading control for the Western blotting experiment.
Mammalian Cell Culture. The human control MCH46 and SCO2 patient fibroblasts as well as the rat H9c2 control and Ctr1^−/− cardiomyocytes were cultured in high glucose Dulbecco's modified Eagle's medium (DMEM) supplemented with 10% fetal bovine serum (Sigma) and 1 mM sodium pyruvate (Life Technologies). The mouse embryonic fibroblasts were cultured in DMEM 10% FBS, 1 mM sodium pyruvate, 1× minimum essential medium non-essential amino acids (MEM NEAA; Life Technologies 11140), 50 μg/mL uridine, and 1× Pen Strep Glutamine (Life Technologies 10378). All cell lines were cultured under 5% CO2 at 37° C. and were treated with indicated concentrations of ES for 3-6 days before harvesting. Whole cell protein was extracted in lysis buffer (BP-115, Boston BioProducts) supplemented with protease inhibitor cocktail (Roche Diagnostics) and the protein concentrations were determined by BCA assay (Thermo Scientific).
Construction of a Ctr1 Knockout Rat H9c2 Cell Line. […]

[2] = tested on: Ctr1^−/− zebrafish; assay: Cox1 levels in mitochondrial extracts of Ctr1 mutant zebrafish; format: in vivo; details: grown in the presence of ES until 10 dpf
Description: (§1) Zebrafish Experiments. […] Morpholino-based experiments were performed.
(§2) ES Supplementation Rescues Copper Deficiency Phenotypes in Zebrafish Models. To determine whether ES can rescue phenotypes associated with copper deficiency in an intact developing vertebrate animal model, zebrafish embryos with a null mutation in the gene encoding the plasma membrane copper importer Ctr1 were utilized. Zebrafish were chosen because of the ability to quickly monitor the pigmentation defect that arises due to the copper requirement of tyrosinase, an enzyme that catalyzes the critical step in melanin biosynthesis. Wild type zebrafish embryos have a characteristic melanin pigmentation pattern visible at 48 hpf. To determine if ES can rescue copper deficiency phenotypes in zebrafish, zebrafish embryos from heterozygous Ctr1 crosses in 10 nM ES were incubated and compared to untreated embryos. […] To determine whether ES can rescue the observed CcO assembly defect, clutches of embryos were grown from heterozygous Ctr1 crosses in the presence of ES until 10 dpf and levels of Cox1 in their mitochondrial extracts were measured.

[3] = tested on: Ctr1^−/− zebrafish embryos; assay: Pigmentation defect in embryos from Ctr1 heterozygous zebrafish crosses; format: in vivo
Description: as §1
as §2, with “To determine if ES can rescue copper deficiency phenotypes in zebrafish, zebrafish embryos from heterozygous Ctr1 crosses in 10 nM ES were incubated and compared to untreated embryos.” left out

For `CN(NC(=O)CC(=O)NN(C)C(=S)c1ccccc1)C(=S)c1ccccc1` [ES, elesclomol], the “levels of COX1 and SOD1” value [1] was “restores”, the “Cox1 levels in mitochondrial extracts” value [2] was “almost completely rescued” and the “melanin pigmentation at 48 hpf” value ([3]; 10 nM ES from 3 hpf) was “all of the ES treated embryos from the same crosses were pigmented”. For the same compound, the “rescue of the pigmentation defect” value ([3]; 100 nM ES or the equivalent dose of copper) was “rescue of the pigmentation defect”.
